From US4439444A, “Amidobenzamides, their salts and pharmaceutical compositions containing them” (Sanofi, priority 1981, dated 1984)
Entries after “also recorded” stand apart in the source; their conditions may differ. Like-named read-outs stand apart in the source and are kept apart here.

Assays:
[1] = biological target: T1, gastric histamine H2 receptors (Rattus norvegicus, UniProt P25102); test: antisecretory activity: antagonism of histamine-induced gastric acid hypersecretion in rat (Ghosh and Schild); format: in vivo; details: for Relative potency (cimetidine = 1): gastric H2, from ID50, rat i.v.; for ED50: rat, read-out: ID50 (dose which inhibits by 50% the gastric hypersecretion induced by histamine); for antisecretory (gastric H2 blocking) activity in words: comparison from Table I
T1 construct: the gastric secretion is measured by perfusion of a physiological solution at a constant speed in the stomach of the animal; from tissue; host or cells: stomach of the living rat (in vivo, intravenous histamine infusion)
T1 sequence (P25102 whole entry, the tested form may be a part): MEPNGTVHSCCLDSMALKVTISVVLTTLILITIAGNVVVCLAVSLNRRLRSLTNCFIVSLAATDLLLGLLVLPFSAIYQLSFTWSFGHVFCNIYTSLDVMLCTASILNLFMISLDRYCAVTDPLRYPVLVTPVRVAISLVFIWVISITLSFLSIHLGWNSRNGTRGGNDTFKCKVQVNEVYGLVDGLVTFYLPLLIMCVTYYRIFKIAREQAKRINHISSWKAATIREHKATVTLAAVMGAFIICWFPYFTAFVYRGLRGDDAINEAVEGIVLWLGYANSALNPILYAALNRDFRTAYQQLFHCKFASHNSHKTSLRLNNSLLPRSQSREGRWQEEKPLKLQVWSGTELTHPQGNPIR
Method: According to this test, a gastric acid hypersecretion is induced by intravenous infusion of a sub-maximal dose of histamine equivalent to 15 mcmol/kg/hour and the gastric secretion is measured by perfusion of a physiological solution at a constant speed in the stomach of the animal.
Such a ID50 represents the index of the gastric H2 blocking action.

[2] = biological target: T2, cardiac histamine H2 receptors (Cavia porcellus, UniProt P47747); test: inhibition of the increase in frequency induced by histamine on the isolated right atrium of the guinea pig; format: cell-based; details: for Relative potency (cimetidine = 1): cardiac H2, from IC50, guinea pig right atrium
T2 construct: induced by histamine on the isolated right atrium of the guinea pig; from tissue; host or cells: isolated right atrium of the guinea pig
T2 sequence (P47747 whole entry): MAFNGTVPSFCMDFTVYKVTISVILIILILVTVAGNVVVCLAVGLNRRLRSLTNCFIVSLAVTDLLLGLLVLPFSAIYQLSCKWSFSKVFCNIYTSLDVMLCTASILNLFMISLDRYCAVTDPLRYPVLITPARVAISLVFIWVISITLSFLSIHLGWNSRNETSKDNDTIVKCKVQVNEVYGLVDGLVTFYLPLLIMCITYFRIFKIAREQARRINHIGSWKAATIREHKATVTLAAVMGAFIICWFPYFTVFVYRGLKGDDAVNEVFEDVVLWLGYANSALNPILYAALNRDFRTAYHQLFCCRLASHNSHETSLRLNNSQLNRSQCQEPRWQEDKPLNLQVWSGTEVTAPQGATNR
Description: Such an IC50 represents the index of cardiac H2 blocking action.

gastric acid secretion = details: rat; as oxalate; cited from earlier work
cardiac H2 receptors = details: Clinica Terapeutica, 1981, 96, 81-91; cited from earlier work
[3] = test system: immature Sprague Dawley rats, castrated, testosterone-stimulated genitals and levator ani muscle; details: rat, in vivo, ip, 200 mg/kg/day
Method: Testosterone was administered by sub-cutaneous route, suspended in a vehicle for steroids, both at the dose of 0.2 mg/animal/day, and 0.4 mg/animal/day. […] As a control it was used a lot of animals treated with the vehicles only. The treatment lasted 8 days. The animals were killed 24 hours after the last injection, the ventral prostrate, the seminal vescicles and the levator ani were immediately drawn and weighed.

[4] = intravenous route, single administration, histamine infusion 15 mcmol/kg/hour

| SMILES | Relative potency (cimetidine = 1) [1] | Relative potency (cimetidine = 1) [2] | ED50 [1, 4] | also measured |
| --- | --- | --- | --- | --- |
| CNC(=C[N+](=O)[O-])NCCSCc1ccc(CN(C)C)o1 [Ranitidine, N-[2[[5-[(dimethylamino)methyl]furfuryl]thio]ethyl]-N'-methyl-2-nitro-1,1-ethenediamine, reference compound] | 3.80 | 5 | – | ED50 ([1]; iv): 0.25 µmol/kg |
| CN(C)Cc1ccc(CSCCNC(=O)c2cccc(NC(=O)c3cccs3)c2)o1 [SR 57922, 3-(2-thienylcarboxamido)-N-[2-(5-dimethylaminomethylfuran-2-ylmethylthio)ethyl]benzamide] | 0.82 | 0.06 | 1.15 µmol/kg | – |
| CN(C)Cc1ccc(CSCCNC(=O)c2ccc(S(N)(=O)=O)cc2)o1 [N-[2-(5-dimethylaminomethylfuran-2-ylmethylthio)ethyl]-4-sulfamoylbenzamide] | – | – | – | ED50 in the gastric acid secretion inhibiting activity (gastric acid secretion): 2.54 mg/kg |
| CN/C(=N/CCSCc1nc[nH]c1C)NC#N [Cimetidine, 2-cyano-1-methyl-3-[2[(5-methylimidazol-4-yl)methylthio]ethyl]guanidine, reference compound] | – | – | – | ED50 ([1]; iv): 0.95 µmol/kg; side effects in the treatment of the ulcerous disease (cardiac H2 receptors): bradycardia and of the asystolia observed as side effects |
| CCCCS(=O)(=O)Nc1cccc(C(=O)NCCSCc2ccc(CN(C)C)o2)c1 [SR 57981 A, 3-butanesulfonamido-N-[2-(5-dimethylaminomethylfuran-2-ylmethylthio)ethyl]benzamide] | 1.94 | – | 0.49 µmol/kg | antisecretory (gastric H2 blocking) activity in words [1]: very powerful |
| CN(C)Cc1ccc(CSCCNC(=O)c2cccc(NS(=O)(=O)c3ccccc3)c2)o1 [CM 57888, 3-benzenesulfonamido-N-[2-(5-dimethylaminomethylfuran-2-ylmethylthio)ethyl]benzamide] | – | – | – | effect when testosterone was administered at the dose of 0.4 mg/animal/day [3]: did not exhibit any effect |
| CN(C)Cc1ccc(CSCCNC(=O)c2cccc(NC(=O)c3cccnc3)c2)o1.O=C(O)C(=O)O.O=C(O)C(=O)O [SR 57927 A, 3-(3-pyridinecarboxamido)-N-[2-(5-dimethylaminomethylfuran-2-ylmethylthio)ethyl]benzamide dioxalate] | 0.82 | – | – | ED50 ([1]; iv): 1.15 µmol/kg |
| CN(C)Cc1ccc(CSCCNC(=O)c2cccc(NS(=O)(=O)c3cccnc3)c2)o1 [SR 57933, 3-(3-pyridinesulfonamido)-N-[2-(5-dimethylaminomethylfuran-2-ylmethylthio)ethyl]benzamide] | 0.52 | – | 1.82 µmol/kg | – |
| CN(C)Cc1ccc(CSCCNC(=O)c2cccc(NC(=O)c3ccc[n+]([O-])c3)c2)o1 [SR 57912, 3-[(3-pyridine 1-oxyde)carboxamido]-N-[2-(5-dimethylaminomethylfuran-2-ylmethylthio)ethyl]benzamide] | 2.88 | 0.08 | 0.33 µmol/kg | antisecretory (gastric H2 blocking) activity in words [1]: very powerful; also recorded: very close to that of ranitidine |
| CN(C)Cc1ccc(CSCCNC(=O)c2cccc(NS(C)(=O)=O)c2)o1 [CM 57822, 3-methanesulfonamido-N-[2-(5-dimethylaminomethylfuran-2-ylmethylthio)ethyl]benzamide] | 0.97 | 0.2 | 0.98 µmol/kg | – |
| CN(C)Cc1ccc(CSCCNC(=O)c2ccc(S(N)(=O)=O)cc2)o1 [Compound A, N-[2-(5-dimethylaminomethylfuran-2-ylmethylthio)ethyl]-4-sulfamoyl benzamide, reference compound] | 0.42 | 1.3 | 2.26 µmol/kg | cardiac H2 blocking activity in words (compared with cimetidine) ([2]; comparison from Table II): more active |
| CN(C)Cc1ccc(CSCCNC(=O)c2cccc(NS(=O)(=O)c3cccs3)c2)o1 [SR 57975, 3-(2-thiophenesulfonamido)-N-[2-(5-dimethylaminomethylfuran-2-ylmethylthio)ethyl]benzamide] | 1.02 | – | 0.93 µmol/kg | – |
